According to US6372212B1, “Chitinase materials and methods” (ICOS Corporation, priority 1996, dated 2002):
In brackets after ≈: the same amount, converted by molar mass. Like-named read-outs stand apart in the source and are kept apart here.

Tests used:
[1] = system: Saccharomyces cerevisiae (ATCC no. 26108); assay: Broth assay; type: cell-based; set-up: key to IC50: 0: No fungal growth; 1: growth is 25% of control; 2: growth is 50% of control; 3: growth is 75% of control; 4: growth equivalent to control; 5: growth is greater than control; settings: for IC50: lowest concentration inhibiting growth by at least 50%
Description: (§1) In additional experiments, the anti-fungal activity of recombinant human chitinase (produced in COS cells as described in Example 5A) was evaluated in an agar diffusion assay, in a broth assay according to National Committee on Clinical Laboratory Standards, and in a cell wall inhibition assay according to Selitrennikoff, Antimicrob. Agents Chemother., 23:757-765 (1983).
(§2) In the broth assay, 50 μg/ml of the sample (A: recombinant human chitinase, B: buffer control, C: control protein, D: a bacterial lysate with chitinase activity, or a known anti-fungal agent) was added with a certain concentration of the test fungal organism to RPMI 1640 media buffered with MOPS, pH 7.0. The samples were incubated at 35° C., with shaking at 120 rpm, for 48 hours, and then growth was evaluated by measuring the turbidity of the suspension. The approximate concentrations of the test fungi were as follows: 2.5×10^4 cells/ml of Candida albicans (ATCC no. 90028); 5×10^4 cells/ml of Candida albicans-polyene resistant (ATCC no. 38247); 1 x 10^4 cells/ml of Aspergillus fumigatus (ATCC no. 16424); 1×10^4 cells/ml of Neurospora crassa (ATCC no. 18889); and 1×10^4 cells/ml of Saccharomyces cerevisiae (ATCC no. 26108).

[2] = system: Neurospora crassa (ATCC no. 18889); assay: Broth assay; type: cell-based; set-up: key to Neurospora crassa Growth: 0: No fungal growth; 1: growth is 25% of control; 2: growth is 50% of control; 3: growth is 75% of control; 4: growth equivalent to control; 5: growth is greater than control; settings: for IC50: Neurospora crassa, ATCC18889, lowest concentration inhibiting growth by at least 50%
Description: as §1, §2

[3] = system: Candida albicans (ATCC no. 90028); assay: Broth assay; type: cell-based; settings: for IC50: lowest concentration inhibiting growth by at least 50%
Description: as §1, §2

[4] = system: Candida albicans-polyene resistant (ATCC no. 38247); assay: Broth assay; type: cell-based; settings: for IC50: Candida, ATCC38247, lowest concentration inhibiting growth by at least 50%
Description: as §1, §2

[5] = system: Aspergillus fumigatus (ATCC no. 16424); assay: Broth assay; type: cell-based
Description: as §1, §2

[6] = Chitotriosidase (chitinase) catalytic activity, fluorogenic substrate; type: biochemical
Description: Chitotriosidase (chitinase) activity was measured using the fluorogenic substrate 4-methylumbelliferyl-β-D-N,N′,N″-triacetylchitotriose (4 MU-chitotrioside, Sigma Chemical, St. Louis, Mo.) in McIlvain buffer (Hollak et al., supra). Ten μl samples of the recombinant product were combined with 10 itl bovine serum albumin (10 mg/ml), 15 μl fluorogenic substrate (2.71 mM), and 65 μl buffer (0.1M citric acid, 0.2M sodium phosphate, pH 5.2) in a total volume of 100 μl. Reactions were incubated at 37° C. for 15 minutes, then the reaction was stopped with the addition of 2 ml of 0.3M glycine/NaOH buffer (pH 10.6). The fluorescent cleavage product, 4-methylumbelliferone, was monitored with a fluorimeter (SLM-AMINCO Instruments, Inc., Rochester, N.Y.) at 450 nm. […] The known quantity of 4-MU was then correlated to the fluorescence signal from the fluorimeter and linear regression was used to determine a standard curve. The signal produced with diluted purified recombinant chitinase in the assay was then used to interpolate the nm quantity of substrate cleaved by the enzyme during the reaction time. This number was then divided by the concentration of protein to obtain the nm/min per mg protein (determined by A280 and calculated molar extinction coefficient).

[7] = system: os-1 cell, mutant strain of Neurospora crassa (protoplasts); assay: os-1 whole cell assay (fungal cell wall biosynthesis inhibition); type: cell-based; set-up: key to Cell Wall Regenertion: +: Normal cell-wall regeneration; −: Inhibited cell-wall regeneration; key to Cell Growth: +: Normal growth, no inhibition of growth observed; −: Inhibited fungal growth, zone of inhibition is observed; settings: 25° C., 72 hours
test fungal organism = assay: Broth assay, overall conclusion; type: cell-based
Description: as §2

[8] = set-up: species or system Female Balb/c mice; settings: mouse, in vivo, iv
Description: The pharmacokinetics of recombinant human chitinase in mice were determined as follows. Female Balb/c mice, 6-8 weeks old, were injected intravenously in the tail vein with 0.5 mg/kg, 5.0 mg/kg and 50 mg/kg recombinant human chitinase. For each dose, mice were terminally bled at 0.01, 0.25, 1, 8 and 24 hours after injection (2 animals were used per time point per dosage). Serum samples were then assayed for chitinase activity and concentration.

Candida albicans = assay: Preliminary in vitro fungal growth inhibition (turbidity of cultures); type: cell-based; settings: 0, 2.8, 11.25, or 45 μg/ml; 24 hours; 10,000-50,000 CFU per ml
Description: (§3) In a preliminary experiment, recombinant human chitinase was tested for inhibition of fungal growth in vitro. The two fungi Candida albicans and Aspergillus fumigatis are serious pathogens for immunocompromised patients. Both Candida and Aspergillus were grown in RPMI growth media at 37° C. to approximately 10,000-50,000 colony forming units (CFU) per ml. Recombinant human chitinase (produced in COS cells as described in Example 5A) was added to cultures at 0, 2.8, 11.25, or 45 μg/ml. After 24 hours, fungal growth was assessed by turbidity of cultures. […] The concentration of fungi tested, however, is much higher than the fungal burden seen during fungal infection in vivo. Different results may be obtained under different conditions, e.g., with a lower fungal burden, or when human chitinase is tested in combination with other anti-fungal agents.

Aspergillus fumigatis = assay: as above; type: cell-based; settings: 0, 2.8, 11.25, or 45 μg/ml; 24 hours; 10,000-50,000 CFU per ml
Description: as §3

[9] = system: Candida albicans (ATCC no. 90028); assay: Agar diffusion assay; type: cell-based; set-up: key: +: Normal growth, no inhibition of growth observed; −: Inhibited fungal growth, zone of inhibition is observed
Description: as §1
In the agar diffusion assay, approximately 1×10^6 cells/ml of Candida albicans (ATCC no. 90028) inoculated into 1.5% agar (RPMI 1640 media buffered with […] (MOPS), pH 7.0. A disk containing 50 μg of the sample (A: recombinant human chitinase, B: buffer control, C: control protein, D: a bacterial lysate with chitinase activity, or a known anti-fungal agent) was placed on the agar, and the zone of growth inhibition was measured. Results are shown in Table 1 below.

[10] = system: os-1 cell, mutant strain of Neurospora crassa (protoplasts); assay: os-1 whole cell assay (fungal cell wall biosynthesis inhibition); type: cell-based; set-up: key to Cell Wall Regenertion: +: Normal cell-wall regeneration; −: Inhibited cell-wall regeneration; key to Cell Growth: +: Normal growth, no inhibition of growth observed; −: Inhibited fungal growth, zone of inhibition is observed
Description: as §1
The os-1 whole cell assay, which identifies inhibitors of fungal cell wall biosynthesis, was conducted essentially according to Selitrennikoff, supra, using an inoculum of 1.5×10^5 protoplasts/ml embedded in agar (Vogel's Medium N, 7.5% sorbitol, 1.5 % sucrose, 10 μg/ml nicotiniamide and 1 % agar) incubated at 25° C. for 72 hours. The cultures were monitored for changes in growth and morphology after disks containing 50 μg of the sample (A: recombinant human chitinase, B: buffer control, C: control protein, D: a bacterial lysate with chitinase activity, or a known anti-fungal agent) were placed on the agar medium. The os-1 cell is a mutant strain of Neurospora crassa that grows as protoplasts without cell walls when incubated under certain conditions at 37° C., but regenerates a cell wall under the appropriate conditions when the temperature is shifted to about 22° C.

Aspergillus fumigatus = assay: Agar diffusion assay; type: cell-based; set-up: key: +: Normal growth, no inhibition of growth observed; −: Inhibited fungal growth, zone of inhibition is observed
[11] = 50 μg/ml, 35° C., 48 hours, turbidity score
[12] = lowest concentration inhibiting growth by at least 90%

Compound: OC(Cn1cncn1)(Cn1cncn1)c1ccc(F)cc1F [fluconazole]
- IC50 [1]: 4 µg/mL
- IC50 [2]: 8 µg/mL
- IC50 ([3]; Candida albicans, ATCC90028, read-out: IC50): 0.5 µg/mL (≈ 1.63 µM)
- IC50 [4]: 16 µg/mL (≈ 52.2 µM)

Compound: Nc1nc(=O)[nH]cc1F [5-fluorocytosine]
- IC50 ([1]; Saccharomyces cerevisiae, ATCC26108, read-out: IC50): 0.125 µg/mL
- IC50 [2]: > 64 µg/mL
- IC50 [3]: 2 μg/ml (growth is 50% of control)
- IC50 [4]: 0.06 µg/mL (≈ 0.465 µM)
- IC50 ([5]; Aspergillus fumigatus, ATCC16424, lowest concentration inhibiting growth by at least 50%): 16 µg/mL (≈ 124 µM)

Compound: recombinant product: C-terminal truncated human chitinase analog (serine at position 370) expressed in E. coli from the Ara-chitinase plasmid at 25° C.
- chitinase catalytic activity ([6]; E. coli transformants grown at 25° C., in words): exhibited chitinase catalytic activity

Compound: C[C@@H]([C@H](N)C(=O)N[C@H](C(=O)O)[C@H]1O[C@@H](n2ccc(=O)[nH]c2=O)[C@H](O)[C@@H]1O)[C@H](O)c1ccc(O)cn1 [nikkomycin Z]
- Cell Growth ([7]; 1 μg/disk): +
- Cell Wall Regenertion ([7]; 1 μg/disk): −
- Morphology ([7]; 1 μg/disk): protoplasts
- Radial measurements of inhibited cell-wall regeneration from center of disk ([7]; 1 μg/disk): 30 mm^d

Compound: A: rH-Chitinase: Recombinant human chitinase (full length, pRc/CMV-MO-13B, SEQ ID NO: 4) produced in COS cells according to Example 5A
- conclusion in the broth assay (in words) (test fungal organism): mildly anti-fungal
- MRT (total body mean residence time) ([8]; 0.5 mg/kg): 45 min
- MRT (total body mean residence time) ([8]; 5 mg/kg): 45.6 min
- MRT (total body mean residence time) ([8]; 50 mg/kg): 159 min
- fungal growth assessed by turbidity of cultures (Candida albicans): comparable rates, independent of chitinase concentration
- fungal growth assessed by turbidity of cultures (Aspergillus fumigatis): comparable rates, independent of chitinase concentration
- Candida albicans Growth ([9]; 50 μg/disk): +
- Saccharomyes cerevisiae Growth [1, 11]: 2 (growth is 50% of control)
- Neurospora crassa Growth [2, 11]: 4
- conclusion in the os-1 whole cell assay (in words) [10]: cell wall specific inhibitor
- Cell Growth ([10]; 50 μg/disk, 25° C., 72 hours): +
- Cell Wall Regenertion ([10]; 50 μg/disk, 25° C., 72 hours): −
- Morphology ([10]; 50 μg/disk, 25° C., 72 hours): protoplasts
- Radial measurements of inhibited cell-wall regeneration from center of disk ([10]; 50 μg/disk, 25° C., 72 hours): 10 mm^d
- Aspergillus fumigatus Growth (Aspergillus fumigatus; 50 μg/disk): +
- chitotriosidase activity ([6]; purified protein produced in COS cells, 37° C., 15 minutes, pH 5.2): 90 nm/min per mg protein
- Candida albicans Growth [3, 11]: 2 (growth is 50% of control)
- C. albicans-polyene resistant Growth [4, 11]: 2 (growth is 50% of control)
- Aspergillus fumigatus Growth [5, 11]: 3 (growth is 75% of control)

Compound: C[C@@H]1[C@H](O)[C@@H](C)/C=C/C=C/C=C/C=C/C=C/C=C/C=C/[C@H](O[C@@H]2O[C@H](C)[C@@H](O)[C@H](N)[C@@H]2O)C[C@@H]2O[C@](O)(C[C@@H](O)C[C@@H](O)[C@H](O)CC[C@@H](O)C[C@@H](O)CC(=O)O[C@H]1C)C[C@H](O)[C@H]2C(=O)O [amphotericin B]
- Candida albicans Growth ([9]; 400 ng/disk): −
- IC90 [2, 12]: 0.5 µg/mL
- Aspergillus fumigatus Growth (Aspergillus fumigatus; 400 ng/disk): −
- Cell Growth ([7]; 400 ng/disk): −
- Cell Wall Regenertion ([7]; 400 ng/disk): +
- Morphology ([7]; 400 ng/disk): cell debris
- Radial measurement of inhibited growth from center of disk ([7]; 400 ng/disk): 10 mm^e
- IC90 [3, 12]: 0.5 µg/mL (≈ 0.541 µM)
- IC90 [4, 12]: >16 µg/mL
- IC90 [5, 12]: 2 μg/ml (growth is 50% of control)
